Test results from ChEMBL document CHEMBL4402561, “Discovery of Potent Dual-Tailed Benzenesulfonamide Inhibitors of Human Carbonic Anhydrases Implicated in Glaucoma and in Vivo Profiling of Their Intraocular Pressure-Lowering Action” (J Med Chem, 2020).

What was measured:
Carbonic anhydrase 7 = Carbonic anhydrase 7 (Homo sapiens, UniProt P43166)
Description: Inhibition of recombinant human carbonic anhydrase 7 incubated for 6 hrs prior to testing measured for 10 to 100 secs by phenol red-based stopped-flow CO2 hydration assay

Carbonic anhydrase 1 = Carbonic anhydrase 1 (Homo sapiens, UniProt P00915)
Description: Inhibition of recombinant human carbonic anhydrase 1 incubated for 6 hrs prior to testing measured for 10 to 100 secs by phenol red-based stopped-flow CO2 hydration assay

Carbonic anhydrase 4 = Carbonic anhydrase 4 (Homo sapiens, UniProt P22748)
Description: Inhibition of recombinant human carbonic anhydrase 4 incubated for 6 hrs prior to testing measured for 10 to 100 secs by phenol red-based stopped-flow CO2 hydration assay

Carbonic anhydrase 2 = Carbonic anhydrase 2 (Homo sapiens, UniProt P00918)
Description: Inhibition of recombinant human carbonic anhydrase 2 incubated for 6 hrs prior to testing measured for 10 to 100 secs by phenol red-based stopped-flow CO2 hydration assay

Oryctolagus cuniculus = assay: Antiglaucoma activity in hypertonic saline solution-induced New Zealand albino rabbit model of ocular hypertension assessed as reduction in intraocular pressure at 1% administered topically to eye measured after 240 mins by pneumotonometric- method; type: functional

Chain of Carbonic anhydrase 4 (P22748 whole entry): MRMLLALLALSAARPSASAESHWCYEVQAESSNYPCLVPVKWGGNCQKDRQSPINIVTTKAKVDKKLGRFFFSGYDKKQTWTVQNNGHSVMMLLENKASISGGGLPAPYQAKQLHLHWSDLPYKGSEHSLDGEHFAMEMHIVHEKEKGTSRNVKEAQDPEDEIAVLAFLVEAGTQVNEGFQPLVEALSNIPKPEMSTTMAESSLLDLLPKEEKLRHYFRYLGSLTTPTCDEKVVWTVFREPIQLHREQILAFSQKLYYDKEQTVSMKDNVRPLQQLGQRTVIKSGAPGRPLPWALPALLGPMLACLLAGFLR
Chain of Carbonic anhydrase 7 (P43166 whole entry): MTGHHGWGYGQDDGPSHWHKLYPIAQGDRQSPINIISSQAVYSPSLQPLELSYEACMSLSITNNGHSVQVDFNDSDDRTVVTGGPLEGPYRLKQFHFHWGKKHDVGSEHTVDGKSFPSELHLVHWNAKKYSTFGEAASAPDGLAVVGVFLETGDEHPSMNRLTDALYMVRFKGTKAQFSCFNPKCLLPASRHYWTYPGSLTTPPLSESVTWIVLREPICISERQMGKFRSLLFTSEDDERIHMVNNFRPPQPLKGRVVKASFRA
Chain of Carbonic anhydrase 1 (P00915 whole entry): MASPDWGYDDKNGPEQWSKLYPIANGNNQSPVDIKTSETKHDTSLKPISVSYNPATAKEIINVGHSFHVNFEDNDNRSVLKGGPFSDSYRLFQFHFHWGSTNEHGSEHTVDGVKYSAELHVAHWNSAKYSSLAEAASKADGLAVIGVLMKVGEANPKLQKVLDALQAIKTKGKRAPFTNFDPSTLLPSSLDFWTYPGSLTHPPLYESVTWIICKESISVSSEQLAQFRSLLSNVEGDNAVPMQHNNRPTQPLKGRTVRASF

Row | Compound | Ki (Carbonic anhydrase 7) | Ki (Carbonic anhydrase 1) | Ki (Carbonic anhydrase 4) | Ki (Carbonic anhydrase 2) | Activity (Oryctolagus cuniculus)
1 | COc1ccc(N/N=C(\C(C)=O)C(=O)Nc2ccc(S(N)(=O)=O)cc2)cc1 | 3590 nM | 704 nM | > 10000 nM | 273 nM | –
2 | CC(=O)/C(=C\c1ccccc1)C(=O)Nc1ccc(S(N)(=O)=O)cc1 | 44.4 nM | 68.7 nM | 958 nM | 4.4 nM | –
3 | CC(=O)/C(=N\Nc1cccc([N+](=O)[O-])c1)C(=O)Nc1ccc(S(N)(=O)=O)cc1 | 792 nM | 751 nM | > 10000 nM | 71.4 nM | –
4 | COc1ccc(/C=C(\C(C)=O)C(=O)Nc2ccc(S(N)(=O)=O)cc2)cc1 | 3.1 nM | 15.3 nM | 609 nM | 0.45 nM | 1.5 mmHg
5 | CC(=O)/C(=C\c1ccc(F)cc1Cl)C(=O)Nc1ccc(S(N)(=O)=O)cc1 | 23.5 nM | 52.7 nM | 222 nM | 5.6 nM | –
6 | CC(=O)/C(=C\c1cccs1)C(=O)Nc1ccc(S(N)(=O)=O)cc1 | 5.3 nM | 49.1 nM | 810 nM | 2.9 nM | –
7 | CC(=O)/C(=C\c1ccc(Cl)cc1)C(=O)Nc1ccc(S(N)(=O)=O)cc1 | 4.3 nM | 41.1 nM | 145 nM | 0.61 nM | 1.3 mmHg
8 | COc1ccc(N/N=C(\Cl)C(=O)Nc2ccc(S(N)(=O)=O)cc2)cc1 | 55.2 nM | 86.1 nM | 6420 nM | 21.1 nM | –
9 | NS(=O)(=O)c1ccc(NC(=O)/C(Cl)=N/Nc2ccccc2)cc1 | 68.1 nM | 227 nM | 7360 nM | 40.6 nM | –
10 | CC(=O)/C(=N\Nc1ccc(Br)cc1)C(=O)Nc1ccc(S(N)(=O)=O)cc1 | > 10000 nM | > 10000 nM | > 10000 nM | 371 nM | –
11 | CC(=O)/C(=N\Nc1ccc(Cl)cc1)C(=O)Nc1ccc(S(N)(=O)=O)cc1 | 1690 nM | 2640 nM | > 10000 nM | 5.2 nM | –
12 | NS(=O)(=O)c1ccc(NC(=O)/C(Cl)=N/Nc2ccc(F)cc2)cc1 | 46.6 nM | 296 nM | 7380 nM | 34.8 nM | –
13 | NS(=O)(=O)c1ccc(NC(=O)/C(Cl)=N/Nc2ccc(Br)cc2)cc1 | 1030 nM | 926 nM | > 10000 nM | 262 nM | –
14 | CC(=O)/C(=N\Nc1ccccc1)C(=O)Nc1ccc(S(N)(=O)=O)cc1 | 647 nM | 82.2 nM | > 10000 nM | 4.3 nM | –
15 | CC(=O)/C(=C\c1cccc([N+](=O)[O-])c1)C(=O)Nc1ccc(S(N)(=O)=O)cc1 | 46.3 nM | 75.5 nM | 387 nM | 6.9 nM | –
16 | CC(=O)/C(=C\c1ccccc1Cl)C(=O)Nc1ccc(S(N)(=O)=O)cc1 | 2.9 nM | 7.3 nM | 383 nM | 0.36 nM | 2 mmHg
17 | CC(=O)CC(=O)Nc1ccc(S(N)(=O)=O)cc1 | 273 nM | 69.2 nM | 885 nM | 39.5 nM | –
18 | CC(=O)/C(=N\Nc1ccc(C#N)cc1)C(=O)Nc1ccc(S(N)(=O)=O)cc1 | 762 nM | 513 nM | > 10000 nM | 52.2 nM | –
19 | NS(=O)(=O)c1ccc(NC(=O)/C(Cl)=N/Nc2ccc(Cl)cc2)cc1 | 6.1 nM | 44.1 nM | 907 nM | 3 nM | –
20 | CC(=O)/C(=N\Nc1ccc(F)cc1)C(=O)Nc1ccc(S(N)(=O)=O)cc1 | 3320 nM | 2670 nM | > 10000 nM | 8.1 nM | –
21 | COc1ccc(N/N=C(\C(C)=O)C(=O)Nc2ccc(S(N)(=O)=O)cc2)cc1OC | 4.4 nM | 59.3 nM | 1480 nM | 5 nM | –
